Earlier results, collected in patent publication US20060205727A1, “Combination therapy for endothelial dysfunction, angina and diabetes” (priority 2005, published 2006).

Columns and labels:
[1] = in vivo
[2] = tested on: plasma C-reactive protein; conditions: acute myocardial infarction, streptokinase plus intravenous trimetazidine infusion

SMILES: COc1ccccc1OCC(O)CN1CCN(CC(=O)Nc2c(C)cccc2C)CC1 (centres unmarked) [Ranolazine, ranolazine]
- QT interval prolongation [1]: causes QT interval prolongation

SMILES: COc1ccc(CN2CCNCC2)c(OC)c1OC [trimetazidine]
- levels of plasma C-reactive protein [2]: reduce the levels of plasma C-reactive protein
